The text below walks through data of US20230416227A1, “PLASMA KALLIKREIN INHIBITORS” (Merck Sharp & Dohme LLC, priority 2020, published 2023).

T1 sequence (P03952 391-638 limits assumed): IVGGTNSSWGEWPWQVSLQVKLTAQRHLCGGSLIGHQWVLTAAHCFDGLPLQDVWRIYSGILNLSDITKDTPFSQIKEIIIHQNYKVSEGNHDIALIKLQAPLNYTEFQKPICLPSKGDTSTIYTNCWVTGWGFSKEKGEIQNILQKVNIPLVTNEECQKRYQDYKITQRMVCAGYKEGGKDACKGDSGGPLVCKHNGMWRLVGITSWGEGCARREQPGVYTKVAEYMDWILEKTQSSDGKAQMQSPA
T1 sequence (P03952 20-390 partner limits assumed): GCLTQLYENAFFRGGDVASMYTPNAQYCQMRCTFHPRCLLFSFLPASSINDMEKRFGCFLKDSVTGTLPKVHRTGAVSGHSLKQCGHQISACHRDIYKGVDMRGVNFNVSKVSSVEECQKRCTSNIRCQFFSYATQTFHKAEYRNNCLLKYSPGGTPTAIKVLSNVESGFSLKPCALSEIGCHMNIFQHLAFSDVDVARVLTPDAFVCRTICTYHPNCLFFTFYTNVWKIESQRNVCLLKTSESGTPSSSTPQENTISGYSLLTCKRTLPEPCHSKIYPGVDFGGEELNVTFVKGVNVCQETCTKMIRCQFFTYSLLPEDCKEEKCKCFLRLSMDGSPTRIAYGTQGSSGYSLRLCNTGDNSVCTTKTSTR

The assay concerns the target T1, Human plasma kallikrein (Homo sapiens, UniProt P03952).
T1 construct: yields a heavy chain (371 amino acids) and a light chain (248 amino acids); purchased Enzyme Research Laboratories
Put plainly: Plasma Kallikrein Assay. The class given is biochemical. The conditions noted are these: purified Human plasma kallikrein 0.5 nM, substrate Acetyl-K-P-R-AFC, pH 7.4. The method, then: The effectiveness of a compound of the present invention as an inhibitor of plasma kallikrein can be determined using a relevant purified serine protease, and an appropriate synthetic substrate. The rate of hydrolysis of the chromogenic or fluorogenic substrate by the relevant serine protease was measured both in the absence and presence of compounds of the present invention. Assays were conducted at rt or at 37° C. […] A decrease in the rate of fluorescence change in the presence of inhibitor is indicative of enzyme inhibition. Such methods are known to one skilled in the art. The results of this assay are expressed as the half-maximal inhibitory concentrations (IC50), or the inhibitory constant, Ki.
Plasma kallikrein determinations were made in 50 mM HEPES buffer at pH 7.4 containing 150 mM NaCl, 5 mM CaCl2), and 0.1% PEG 8000 (polyethylene glycol; Fisher Scientific). […]
Times required to achieve equilibration between enzyme and inhibitor were determined in control experiments. The reactions were performed under linear progress curve conditions and fluorescence increase measured at 405 Ex/510 Em nm. […] IC50 was determined by inflection point from a four parameter logistic curve fit. Ki was calculated using the Cheng Prusoff equation, Ki=IC50/(1+([S]/Km)).
For the molecule `CN(CCO)c1ccc(Cn2cc(NC(=O)c3cncc(-c4c(C(F)F)ccc(Cl)c4F)n3)cn2)cn1` [Example 121, 6-(3-Chloro-6-(difluoromethyl)-2-fluorophenyl)-N-(1-((6-((2-hydroxyethyl)(methyl)amino)pyridin-3-yl)methyl)-1H-pyrazol-4-yl)pyrazine-2-carboxamide], the half-maximal inhibitory concentration (IC50) was found to be 18.4 nM.

`CC(c1cnc(N2CC[C@H]2[C@@H](C)N2CC[C@H](O)[C@@H]2C)nc1)n1cc(NC(=O)c2cncc(-c3c(C(F)F)ccc(Cl)c3F)n2)cn1` (stereo partly drawn) [Example 185, 6-(3-Chloro-6-(difluoromethyl)-2-fluorophenyl)-N-(1-(1-(2-((S)-2-((R)-1-((2S,3S)-3-hydroxy-2-methylpyrrolidin-1-yl)ethyl)azetidin-1-yl)pyrimidin-5-yl)ethyl)-1H-pyrazol-4-yl)pyrazine-2-carboxamide] registered a concentration for half-maximal inhibition (IC50) of 1.5 nM. Against the preceding molecule, the IC50 is about 12-fold lower. Next, `CC(c1cnc(N2CC[C@H]2CN2CCCC(C)(O)C2)nc1)n1cc(NC(=O)c2cncc(-c3c(C(F)F)ccc(Cl)c3F)n2)cn1` (stereo partly drawn) [Example 176, 6-(3-Chloro-6-(difluoromethyl)-2-fluorophenyl)-N-(1-(1-(2-((2S)-2-((3-hydroxy-3-methylpiperidin-1-yl)methyl)azetidin-1-yl)pyrimidin-5-yl)ethyl)-1H-pyrazol-4-yl)pyrazine-2-carboxamide]: 1.4 nM. As for `O=C(Nc1cnn(Cc2ccc(N3CC[C@H]3CO)nc2)c1)c1cncc(-c2c(C(F)F)ccc(Cl)c2F)n1` [Example 126, (S)-6-(3-Chloro-6-(difluoromethyl)-2-fluorophenyl)-N-(1-((6-(2-(hydroxymethyl)azetidin-1-yl)pyridin-3-yl)methyl)-1H-pyrazol-4-yl)pyrazine-2-carboxamide], the IC50 was determined as 30.5 nM. `CC(C)(O)CC1CCCN1c1ncc(Cn2cc(NC(=O)c3cncc(-c4c(C(F)F)ccc(Cl)c4F)n3)cn2)cn1` (stereo not drawn) [Example 106, 6-(3-Chloro-6-(difluoromethyl)-2-fluorophenyl)-N-(1-((2-(2-(2-hydroxy-2-methylpropyl)pyrrolidin-1-yl)pyrimidin-5-yl)methyl)-1H-pyrazol-4-yl)pyrazine-2-carboxamide] returned an IC50 of 41.3 nM.

For the molecule `CN(C)CCN(CCO)c1ncc(Cn2cc(NC(=O)c3cncc(-c4c(C(F)F)ccc(Cl)c4F)n3)cn2)cn1` [Example 88, 6-(3-Chloro-6-(difluoromethyl)-2-fluorophenyl)-N-(1-((2-((2-(dimethylamino)ethyl)(2-hydroxyethyl)amino)pyrimidin-5-yl)methyl)-1H-pyrazol-4-yl)pyrazine-2-carboxamide], the IC50 is 14.9 nM. Next, `CC(C)(O)CC1CCCN1c1ncc(Cn2cc(NC(=O)c3cncc(-c4c(C(F)F)ccc(Cl)c4F)n3)cn2)cn1` (single isomer, unassigned) [Example 110, (S or R)-6-(3-Chloro-6-(difluoromethyl)-2-fluorophenyl)-N-(1-((2-(2-(2-hydroxy-2-methylpropyl)pyrrolidin-1-yl)pyrimidin-5-yl)methyl)-1H-pyrazol-4-yl)pyrazine-2-carboxamide]: 46.2 nM; `N#Cc1ccc(Cl)c(F)c1-c1cncc(C(=O)Nc2cnn(Cc3ccc(N4CCC4)nc3)c2)n1` [Example 52, N-(1-((6-(Azetidin-1-yl)pyridin-3-yl)methyl)-1H-pyrazol-4-yl)-6-(3-chloro-6-cyano-2-fluorophenvl)pyrazine-2-carboxamide]: 17.1 nM; `CN(C)CCN(C)c1ncc(Cn2cc(NC(=O)c3cncc(-c4c(C(F)F)ccc(Cl)c4F)n3)cn2)cn1` [Example 98, 6-(3-Chloro-6-(difluoromethyl)-2-fluorophenyl)-N-(1-((2-((2-(dimethylamino)ethyl)(methyl)amino)pyrimidin-5-yl)methyl)-1H-pyrazol-4-yl)pyrazine-2-carboxamide]: 28.2 nM. For the molecule `CC(c1cnc(N2CC[C@H]2CN2CC[C@H](O)[C@@H](C)C2)nc1)n1cc(NC(=O)c2cncc(-c3c(C(F)F)ccc(Cl)c3F)n2)cn1` (stereo partly drawn) [Example 180, 6-(3-Chloro-6-(difluoromethyl)-2-fluorophenyl)-N-(1-(1-(2-((S)-2-(((3S,4S)-4-hydroxy-3-methylpiperidin-1-yl)methyl)azetidin-1-yl)pyrimidin-5-yl)ethyl)-1H-pyrazol-4-yl)pyrazine-2-carboxamide], the IC50 was 1.1 nM. For the molecule `O=C(Nc1cnn(Cc2cnc(N3CCC4CC43)nc2)c1)c1cncc(-c2c(C(F)F)ccc(Cl)c2F)n1` (stereo not drawn) [Example 108, N-(1-((2-(2-Azabicyclo[3.1.0]hexan-2-yl)pyrimidin-5-yl)methyl)-1H-pyrazol-4-yl)-6-(3-chloro-6-(difluoromethyl)-2-fluorophenyl)pyrazine-2-carboxamide], the half-inhibitory concentration (IC50) came out at 45 nM. Next, `CC(c1cnc(N2CC[C@H]2CN2CC(O)C2)nc1)n1cc(NC(=O)c2cncc(-c3c(C(F)F)ccc(Cl)c3F)n2)cn1` (stereo partly drawn) [Example 170, 6-(3-Chloro-6-(difluoromethyl)-2-fluorophenyl)-N-(1-(1-(2-((S)-2-((3-hydroxyazetidin-1-yl)methyl)azetidin-1-yl)pyrimidin-5-yl)ethyl)-1H-pyrazol-4-yl)pyrazine-2-carboxamide]: 1.6 nM. As to `O=C(Nc1cnn(Cc2cnc(N3CCCC3CC3(O)CC3)nc2)c1)c1cncc(-c2c(C(F)F)ccc(Cl)c2F)n1` (single isomer, unassigned) [Example 112, (S or R)-6-(3-Chloro-6-(difluoromethyl)-2-fluorophenyl)-N-(1-((2-(2-((1-hydroxycyclopropyl)methyl)pyrrolidin-1-yl)pyrimidin-5-yl)methyl)-1H-pyrazol-4-yl)pyrazine-2-carboxamide], the IC50 was 49.2 nM. Next, `O=C(Nc1cnn(Cc2ccc(N3CC[C@@H]3CO)nc2)c1)c1cncc(-c2c(C(F)F)ccc(Cl)c2F)n1` [Example 68, (R)-6-(3-Chloro-6-(difluoromethyl)-2-fluorophenyl)-N-(1-((6-(2-(hydroxymethyl)azetidin-1-yl)pyridin-3-yl)methyl)-1H-pyrazol-4-yl)pyrazine-2-carboxamide]: 26.3 nM; `CC1C2CC2CN1c1ncc(C(CO)n2cc(NC(=O)c3cncc(-c4c(C(F)F)ccc(Cl)c4F)n3)cn2)cn1` (single isomer, unassigned) [Example 49, 6-(3-Chloro-6-(difluoromethyl)-2-fluorophenyl)-N-(1-((R or S)-2-hydroxy-1-(2-((1S,2R,5R or 1R,2S, 5S)-2-methyl-3-azabicyclo[3.1.0]hexan-3-yl)pyrimidin-5-yl)ethyl)-1H-pyrazol-4-yl)pyrazine-2-carboxamide]: 17.6 nM. Next, `CC1C2CC2CN1c1ncc(C(CO)n2cc(NC(=O)c3cncc(-c4c(C(F)F)ccc(Cl)c4F)n3)cn2)cn1` (single isomer, unassigned) [Example 50, 6-(3-Chloro-6-(difluoromethyl)-2-fluorophenyl)-N-(1-((S or R)-2-hydroxy-1-(2-((1R,2S,5S or 1S,2R, 5R)-2-methyl-3-azabicyclo[3.1.0]hexan-3-yl)pyrimidin-5-yl)ethyl)-1H-pyrazol-4-yl)pyrazine-2-carboxamide]: 1120 nM. For `CC(c1cnc(N2CC3CC3C2C#N)nc1)n1cc(NC(=O)c2cncc(-c3c(C(F)F)ccc(Cl)c3F)n2)cn1` (single isomer, unassigned) [Example 198], inhibition was half-maximal at 189 nM (IC50). Next, `NC(=O)C1CCCN(c2ccc(Cn3cc(NC(=O)c4cncc(-c5c(C(F)F)ccc(Cl)c5F)n4)cn3)cn2)C1` (stereo not drawn) [Example 129, N-(1-((6-(3-Carbamoylpiperidin-1-yl)pyridin-3-yl)methyl)-1H-pyrazol-4-yl)-6-(3-chloro-6-(difluoromethyl)-2-fluorophenyl)pyrazine-2-carboxamide]: 32.8 nM. With `CC(c1cnc(N2CC[C@H]2[C@@H](C)N2C[C@@H](O)[C@H](F)C2)nc1)n1cc(NC(=O)c2cncc(-c3c(C(F)F)ccc(Cl)c3F)n2)cn1` (stereo partly drawn) [Example 189, 6-(3-Chloro-6-(difluoromethyl)-2-fluorophenyl)-N-(1-(1-(2-((S)-2-((R)-1-((3R,4R)-3-fluoro-4-hydroxypyrrolidin-1-yl)ethyl)azetidin-1-yl)pyrimidin-5-yl)ethyl)-1H-pyrazol-4-yl)pyrazine-2-carboxamide], the IC50 is 1.2 nM.

The molecule `CC(=O)N1CC[C@H]2CN(c3ccc(Cn4cc(NC(=O)c5cncc(-c6c(C(F)F)ccc(Cl)c6F)n5)cn4)cn3)[C@H]2C1` [Example 131, N-(1-((6-((1R,6S)-3-Acetyl-3,8-diazabicyclo[4.2.0]octan-8-yl)pyridin-3-yl)methyl)-1H-pyrazol-4-yl)-6-(3-chloro-6-(difluoromethyl)-2-fluorophenyl)pyrazine-2-carboxamide] gave an IC50 of 37.6 nM. For `CC(c1cnc(N2C[C@H]3C[C@H]3C2C(=O)N(C)C)nc1)n1cc(NC(=O)c2cncc(-c3c(C(F)F)ccc(Cl)c3F)n2)cn1` (single isomer, unassigned) [Example 201, (1R,2S,5S or 1S,2R,5R)-3-(5-((S or R)-1-(4-(6-(3-Chloro-6-(difluoromethyl)-2-fluorophenyl)pyrazine-2-carboxamido)-1H-pyrazol-1-yl)ethyl)pyrimidin-2-yl)-N,N-dimethyl-3-azabicyclo[3.1.0]hexane-2-carboxamide], the IC50 came to 6.2 nM.

The term IC50 denotes the midpoint of a concentration-inhibition curve. Read a high IC50 as a need for much substance.
